B1: Fatty-acid amide hydrolase 1 (Homo sapiens), O00519 (protein)
chain: MVQYELWAALPGASGVALACCFVAAAVALRWSGRRTARGAVVRARQRQRAGLENMDRAAQRFRLQNPDLDSEALLALPLPQLVQKLHSRELAPEAVLFTYVGKAWEVNKGTNCVTSYLADCETQLSQAPRQGLLYGVPVSLKECFTYKGQDSTLGLSLNEGVPAECDSVVVHVLKLQGAVPFVHTNVPQSMFSYDCSNPLFGQTVNPWKSSKSPGGSSGGEGALIGSGGSPLGLGTDIGGSIRFPSSFCGICGLKPTGNRLSKSGLKGCVYGQEAVRLSVGPMARDVESLALCLRALLCEDMFRLDPTVPPLPFREEVYTSSQPLRVGYYETDNYTMPSPAMRRAVLETKQSLEAAGHTLVPFLPSNIPHALETLSTGGLFSDGGHTFLQNFKGDFVDPCLGDLVSILKLPQWLKGLLAFLVKPLLPRLSAFLSNMKSRSAGKLWELQHEIEVYRKTVIAQWRALDLDVVLTPMLAPALDLNAPGRATGAVSYTMLYNCLDFPAGVVPVTTVTAEDEAQMEHYRGYFGDIWDKMLQKGMKKSVGLPVAVQCVALPWQEELCLRFMREVERLMTPEKQSS

How the values were obtained:
[1] = biological target: T1, Fatty-acid amide hydrolase 1 (Rattus norvegicus, UniProt P97612)
T1 sequence (P97612 whole entry): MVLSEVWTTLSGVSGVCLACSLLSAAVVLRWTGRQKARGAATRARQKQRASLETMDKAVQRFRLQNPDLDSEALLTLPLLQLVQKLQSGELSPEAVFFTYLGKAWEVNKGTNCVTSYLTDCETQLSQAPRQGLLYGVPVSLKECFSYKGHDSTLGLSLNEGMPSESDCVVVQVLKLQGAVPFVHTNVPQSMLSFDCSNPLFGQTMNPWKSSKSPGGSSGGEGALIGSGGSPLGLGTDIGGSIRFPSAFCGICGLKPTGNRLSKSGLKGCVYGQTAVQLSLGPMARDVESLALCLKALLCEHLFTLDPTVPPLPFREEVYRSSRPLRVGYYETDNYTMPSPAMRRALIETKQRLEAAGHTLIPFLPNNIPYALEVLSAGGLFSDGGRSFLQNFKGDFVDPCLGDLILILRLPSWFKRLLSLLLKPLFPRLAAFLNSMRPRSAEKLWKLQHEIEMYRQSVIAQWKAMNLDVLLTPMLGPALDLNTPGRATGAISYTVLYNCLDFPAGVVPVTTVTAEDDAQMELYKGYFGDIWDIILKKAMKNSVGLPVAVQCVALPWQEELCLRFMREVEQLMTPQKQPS

[2] = biological target: T1, Fatty-acid amide hydrolase 1; test: Inhibition of rat FAAH
Rattus norvegicus = organism: Rattus norvegicus; test: Ex vivo inhibition of FAAH activity in rat brain after 16 hrs; assay type: functional
[3] = substrate: CCCCCCCC/C=C\CCCCCCCC(N)=O; test: Activity of FAAH

Row | Molecule | IC50 [2] | other results
1 | O=C1O/C(=C/Br)CCC1c1cccc2ccccc12 (stereo unspecified) [BROMOENOL LACTONE] |  | IC50 [1]: 0.8 µM
2 | CCCC(C)C1(CC)C(=O)NC(=S)NC1=O (stereo unspecified) [THIOPENTAL] | 2000 µM | 
3 | NC(=O)c1cccc(-c2cccc(OC(=O)NC3CCCCC3)c2)c1 [URB-597] |  | inhibition (INH) (Rattus norvegicus): 90%
4 | CN(C)C(=O)n1nnnc1Cc1ccc(-c2ccccc2)cc1 | 0.0124 µM | 
5 | CC(C)c1cccc(C(C)C)c1O [PROPOFOL] | 14 µM | 
6 | B1 |  | Km [3]: 5 µM

From ChEMBL document CHEMBL1140205, “Discovery and development of fatty acid amide hydrolase (FAAH) inhibitors” (J Med Chem, 2008)
